Data on 3 molecules can be found in patent US9371317B2, “Sweet flavor modifier” (SENOMYX, INC., priority 2013, dated 2016).

Usually melting point stands for the temperature, or range, at which the solid turns liquid.

The test system of series [1] is human panelists. In words: Sweetness threshold: paired comparison taste test, LSB+compound at pH 7.1 vs. 1% sucrose. The following applies: 25 ppm compound in LSB. The format is in vivo. On the procedure:
(§1) Test samples containing experimental compounds are presented in pairs to the panelist and they are asked to determine which of the sample is sweeter. […] A group of 10 to 16 or more panelists participated in each test. Subjects refrained from eating or drinking (except water) for at least 1 hour prior to the test. Subjects rinsed with water several times to clean the mouth.
(§2) Taste tests were performed with sucrose or HFCS as the sweetener in the presence or absence of compound. A 0.2% stock solution of compound in water with sodium bicarbonate was prepared and then this stock solution was diluted in the final sample to achieve the targeted final concentration of compound. Taste samples were also prepared in a low sodium phosphate buffer (pH 7.1; “LSB”) lacking sucrose or HFCS to evaluate the taste of the compound alone. Low sodium phosphate buffer consists of 0.3 mM KCl, 0.5 mM Na2HPO4, and 0.175 mM KH2PO4. Sample volumes are usually 20 ml.
(§3) In one paired comparison test, the panelist is presented with two different samples and asked to identify the sample which is sweeter. The samples within a paired comparison test are presented in a randomized, counterbalanced order. Panelists have up to a 1 minute delay between taste tests to clear the mouth of any tastes. […]

For series [2], the system named is human panelists. In words: Enhancement of sucrose at pH 7.1: paired comparison taste test, 6% sucrose+compound vs. 10%, 11% or 12% sucrose. The format is in vivo. The following applies: 10 ppm compound in 6% sucrose. As for the experimental part: as §1, §2, §3
Series [3] concerns human panelists. In words: Enhancement of sucrose at pH 2.8: paired comparison taste test, 6% sucrose+compound vs. 10%, 11% or 12% sucrose. The format is in vivo. On the procedure: as §1, §2, §3
The test system of series [4] is human panelists. In words: Enhancement of HFCS at pH 2.8: paired comparison taste test, 6% HFCS+compound vs. 8% or 9% HFCS. The following applies: 20 ppm compound in 6% HFCS. The format is in vivo. On the procedure:
as §1, §2, §3

Some results are limits rather than exact numbers.

In turn, `CC(C)(COc1cccc2c1C(N)=NS(=O)(=O)N2)NC(=O)c1ccncc1` [Compound A1, N-(1-(4-amino-2,2-dioxide-1H-benzo[c][1,2,6]thiadiazin-5-yloxy)-2-methylpropan-2-yl)isonicotinamide] registered a melting point of 235 to 238 °C. Further, the “Sweetness of compound alone vs. 1% sucrose” value with human panelists [1] was 25 ppm equivalent to 1% sucrose. Moreover, the “Sucrose equivalence of 6% sucrose + compound” value in the series with human panelists [2] is given as 10 ppm in 6% sucrose is equivalent to 10% sucrose. Further, in the series with human panelists [3] (5 ppm compound in 6% sucrose), the “Sucrose equivalence of 6% sucrose + compound” value was 5 ppm in 6% sucrose is equivalent to 11% sucrose. Moreover, the “Sucrose equivalence of 6% sucrose + compound” value with human panelists [3] (10 ppm compound in 6% sucrose) was 10 ppm in 6% sucrose is equivalent to 12% sucrose. Besides, the “HFCS equivalence of 6% HFCS + compound” value in the series on human panelists [4] is on record as 20 ppm in 6% HFCS is equivalent to 9% HFCS.
In turn, `Cc1cc(C(=O)NC(C)(C)COc2cccc3c2C(N)=NS(=O)(=O)N3)ccn1` [Example 2, N-(1-((4-amino-2,2-dioxide-1H-benzo[c][1,2,6]thiadiazin-5-yl)oxy)-2-methylpropan-2-yl)-2-methylisonicotinamide] had a melting point of 238 to 240 °C.
For the molecule `NC1=NS(=O)(=O)Nc2cccc(OCC3(NC(=O)c4ccncc4)CCCC3)c21` [Example 9, N-(1-(((4-amino-2,2-dioxido-1H-benzo[c][1,2,6]thiadiazin-5-yl)oxy)methyl)cyclopentyl)isonicotinamide], the melting point is more than 250 °C.
